Where two headings read alike, the source gives them in different places.
What was measured:
[1] = test system: hyperlipidémie provoquée par l'administration de TRITON®; assay: Triton test: hyperlipidemia induced by i.v. TRITON W.R. in fasted rats; format: in vivo, rats WISTAR mâles; details: for Cholestérol estérifié Score (par rapport au clofibrate compté pour 1) / Cholestérol total Score (par rapport au clofibrate compté pour 1) / Lipides totaux Score (par rapport au clofibrate compté pour 1) / Triglycérides Score (par rapport au clofibrate compté pour 1): ratio to clofibrate of the same series; for inhibition in vivo at 250 mg/kg: Rattus norvegicus, po, blood assayed 6 h and/or 24 h later
Excerpt: Dans une première série d'expériences, des produits ont été testés sur une hyperlipidémie provoquée par l'administration de TRITON® selon le protocole suivant.
Les essais ont été réalisés sur des groupes de cinq rats WISTAR mâles dont le poids varie de 150 à 175 g.
Pour effectuer ces essais, on provoque une hyperlipidémie chez les animaux, au moyen du produit commercialisé par la Société ROHM and HAAS sous le nom de TRITON® W. R.
On observe, sur cette hyperlipidémie, les effets obtenus par administration des substances actives selon l'invention.
Les essais sont réalisés comme suit : • les rats sont mis à jeûner pendant 18 heures, puis on administre le TRITON® W.R. par voie intraveineuse en solution aqueuse à 10 % à raison de 200 mg/kg ;
6 heures et/ou 24 heures plus tard, on effectue les dosages sur le sang de façon traditionnelle.
Dans la première colonne, on a indiqué le numéro du composé testé.
Dans la deuxième colonne, on a indiqué le nombre d'animaux qui ont été soumis au test.
Dans les quatre dernières colonnes, on a indiqué les résultats relatifs respectivement : • aux lipides totaux, • aux triglycérides, • au cholestérol total, • au cholestérol estérifié.
Dans chacune de ces colonnes, on indique : • a) le pourcentage de diminution par rapport au témoin TRITON; • b) le score par rapport au clofibrate de référence, c'est-à-dire le rapport de l'intensité de l'activité du produit testé vis-à-vis de celle,de l'activité au clofibrate comptée pour 1.

[2] = test system: animaux ayant reçu pendant une durée prolongée un régime athéromateux; assay: Atheromatous diet test (cholesterol/cholic acid diet + vitamin D2): biochemical, macroscopic and microscopic examinations; format: in vivo, rats WISTAR femelles
Excerpt: Dans une deuxième série expérimentale, on a testé l'activité de certains produits de l'invention sur des animaux ayant reçu pendant une durée prolongée un régime athéromateux.
L'essai s'effectue sur des rats WISTAR femelles, d'un poids d'environ 160-180 g.
Les animaux reçoivent une alimentation provenant de l'usine d'alimentation nationale de Villemois- son-Sur-Orge, France, et désignée sous la référence UAR A03, enrichie en cholestérol (0,5 %) et en acide cholique (0,5 %).
Après 15 jours de régime athéromateux et tout en maintenant les animaux sous régime athéromateux, on leur administre par voie orale pendant 4 jours 250 000 ui/kg de vitamine D2 commercialisée sous le nom de Stérogyl 25H, en solution dans de l'huile d'olive.
On administre ensuite les produits à étudier pendant 4 semaines, dès la fin de l'administration de l'agent lésionnel.
La quantité de produit administrée aux animaux est de 100 mg/kg.
En fin d'étude, on effectue sur tous les animaux des examens biochimiques (cholestérol total, cholesterol high density lipoprotein (HDL) et cholesterol low density lipoprotein (LDL), et triglycérides).
En fin d'étude, tous les animaux encore vivants sont sacrifiés, et l'on prélève divers organes dont particulièrement l'aorte, pour l'étude histologique de cette dernière. Deux critères sont étudiés : le nombre de zones athéromateuses et l'intensité des lésions.
Le calcul des cotations s'effectue de la façon suivante : • en ce qui concerne l'intensité des lésions, on effectue une cotation allant de 0 pour l'absence de lésion à […] pour les lésions les plus fortes, et ceci pour chaque type d'altération considéré (augmentation des espaces interlamellalres, interruption des lames élastiques, épaississement des lames élastiques, dépôt de calcium, dépôt de mucopolysaccharides); puis on fait l'addition de la totalité des résultats par lot d'animaux; • en ce qui concerne le nombre de zones athéromateuses, par comptage de ces dernières et addition de la totalité des chiffres obtenus par lot d'animaux.
On calcule ensuite le pourcentage de diminution par rapport aux témoins régime et le score, c'est-à-dire le rapport de l'intensité de l'activité du produit testé vis-à-vis de celle de l'activité du clofibrate, compté pour 1.
Le tableau IV donne les résultats détaillés des examens biochimiques : • a) en % de diminution par rapport au témoin régime; • b) en score, par rapport au produit de référence, le clofibrate, ce dernier étant compté pour 1.
Le tableau V donne le résultat des examens macroscopiques : • a) en % de diminution des animaux atteints de lésions; • b) en score par rapport au clofibrate de référence, dont le score est compté pour 1.
Le tableau VI donne les résultats microscopiques avec cotation histologique concernant l'intensité des lésions, et le nombre de zones athéromateuses.

[3] = Acute oral toxicity (lethal dose); format: in vivo; details: mouse, in vivo, po, oral, read-out: DL50 (the source's name) (converted)
Excerpt: (§1) La toxioité aiguë est exprimée par la dose létale 50, c'est-à-dire la dose létale entraînant la mort de 50 % des animaux.
(§2) Cette étude a été effectuée sur des souris mâles et femelles auxquelles on a administré les produits à tester par voie orale à des concentrations différentes et on a mesuré la létalité sur dix souris mâles et sur 10 souris femelles.

souris mâles et femelles = assay: Acute oral toxicity (lethal dose); format: in vivo; details: for DL0 / DL100: oral
Excerpt: as §1, §2

[4] = macroscopic examination, 100 mg/kg for 4 weeks
[5] = 250 mg/kg oral, given with TRITON W.R. 200 mg/kg i.v., read-out: Cholestérol estérifié % (pourcentage de diminution par rapport au témoin TRITON)
[6] = 250 mg/kg oral, given with TRITON W.R. 200 mg/kg i.v., read-out: Cholestérol total % (pourcentage de diminution par rapport au témoin TRITON)
[7] = 250 mg/kg oral, given with TRITON W.R. 200 mg/kg i.v., read-out: Triglycérides % (pourcentage de diminution par rapport au témoin TRITON)
[8] = read-out: Lipides totaux % (pourcentage de diminution par rapport au témoin TRITON), 250 mg/kg oral, given with TRITON W.R. 200 mg/kg i.v.

Row | SMILES | Cholestérol estérifié Score (par rapport au clofibrate compté pour 1) ([1]; 250 mg/kg oral) | Cholestérol total Score (par rapport au clofibrate compté pour 1) ([1]; 250 mg/kg oral) | Lipides totaux Score (par rapport au clofibrate compté pour 1) ([1]; 250 mg/kg oral) | Triglycérides Score (par rapport au clofibrate compté pour 1) ([1]; 250 mg/kg oral) | inhibition in vivo at 250 mg/kg [1, 5] [%] | inhibition in vivo at 250 mg/kg [1, 6] [%] | inhibition in vivo at 250 mg/kg [1, 7] [%] | inhibition in vivo at 250 mg/kg [1, 8] [%] | other results
1 | CCOC(=O)C(C)(C)Oc1ccc(Cl)cc1 [Clofibrate] | 1,00 | 1,00 | 1,00 | 1,00 | – | – | – | – | CHOLESTEROL HDL Score (clofibrate compté pour 1) ([2]; 100 mg/kg for 4 weeks): 1,00; CHOLESTEROL LDL Score (clofibrate compté pour 1) ([2]; 100 mg/kg for 4 weeks): 1,00; CHOLESTEROL T Score (clofibrate compté pour 1) ([2]; 100 mg/kg for 4 weeks): 1,00; TRIGLYCERIDES Score (clofibrate compté pour 1) ([2]; 100 mg/kg for 4 weeks): 1,00; ANIMAUX ATTEINTS % [2, 4]: 81,82%; ANIMAUX ATTEINTS SCORE CLOFIBRATE [2, 4]: 1,00; NOMBRE DE ZONES ATHEROMATEUSES POUR 15 ANIMAUX Score Clofibrate ([2]; microscopic examination): 1,00; COTATION HISTOLOGIQUE Cotation ([2]; microscopic examination of the aorta, intensity of lesions, sum per group, 100 mg/kg for 4 weeks): 49,10; NOMBRE DE ZONES ATHEROMATEUSES POUR 15 ANIMAUX Cotation ([2]; microscopic examination of the aorta, 100 mg/kg for 4 weeks): 72,30; COTATION HISTOLOGIQUE Score Clofibrate ([2]; microscopic examination, intensity of lesions): 1,00
2 | CCC(CO)NS(=O)(=O)c1cc(Cl)c([N+](=O)[O-])cc1OC (stereo not drawn) [compound 316] | 0,63 | 1,17 | 3,09 | – | 31.2 | 11.1 | 0 | 42.6 | LD50 ([3]; Souris femelles): > 15000 mg/kg; LD50 ([3]; Souris mâles): 18500 mg/kg; DL0 (souris mâles et femelles; Souris femelles): ≥ 15 000 mg/kg; DL100 (souris mâles et femelles; Souris femelles): > 15 000 mg/kg; DL0 (souris mâles et femelles; Souris mâles): 15 000 mg/kg; DL100 (souris mâles et femelles; Souris mâles): > 20 000 mg/kg; toxicité par voie digestive (souris mâles et femelles; conclusion in words from all results): pratiquement dénué de toxicité par voie digestive
3 | COc1ccc([N+](=O)[O-])cc1S(=O)(=O)NCC(C)O (stereo not drawn) [compound 321] | 0,95 | 1,44 | 2,84 | 1,05 | 46.7 | 13.7 | 76 | 39.2 | –
4 | CCC(CO)NS(=O)(=O)c1ccc(N)cc1OC (stereo not drawn) [compound 313] | – | – | 0,77 | – | 39.4 | 39.3 | 0 | 19.4 | –
5 | CCC(CO)NS(=O)(=O)c1cc(N)ccc1OC (stereo not drawn) [Composé n° 315] | – | 1,83 | 3,61 | 0,53 | 0.8 | 17.4 | 38.1 | 49.8 | –

— EP0081425B1, “Pharmaceutical compositions having normolipemic properties and containing compounds of the n-substituted benzenesulfonamide type” (priority 1981, dated 1983)
